Like-named read-outs stand apart in the source and are kept apart here.
What was measured:
Experiment in all cases: Growth inhibition GI50 in vitro (CCK8/MTT, 72 h)
Format in all cases: cell-based, human
[1] = system: N87 (HER2 Amp); conditions: HER2 positive cell line, range of GI50, read-out: GI50 N87
[2] = system: AU565 (Her2 amp); conditions: HER2 positive cell line, range of GI50, read-out: GI50 AU-565
[3] = system: SK-BR-3 (Her2 amp); conditions: HER2 positive cell line, range of GI50, read-out: GI50 SK-BR-3
Experimental: Human lung adenocarcinoma cell line Calu-3 (ATCC) was cultured with 1×MEM complete medium (10% FBS, 1% double-antibiotics, 1% NEAA (Gibco), 2 mM glutamine and 1 mM of sodium pyruvate). Human breast cancer cell line SK-BR-3 was cultured with McCOY'S5A complete medium (10% FBS). Human colon cancer cell line SNU1040 (HER2 V777M positive) (ATCC) and human bronchoalveolar adenocarcinoma cell line NCI-H1781 (expressing HER2 exon 20 G776VC mutation) (ATCC) were cultured with 1×RPMI1640 complete medium (10% FBS), respectively.
(§1) The suspension cells were collected by centrifugation. The supernatant was discard and the cell pellet was resuspended and counted. Different cell concentrations (5˜10×10^4 cells/mL) were prepared according to the growth cycle of each cell line and then seeded on a 96-well plate (Corning), 100 μL/well. The cells were incubated over night at 37° C., 5% CO2. The compounds were added to the cells on the second day with 2 wells in parallel. The final concentration of organic solvent shall not exceed 1%. The cells were continually incubated for 72 h, and then subjected to MTT assay.
(§2) The present compounds and the reference compounds were dissolved with DMSO (Sigma), respectively. […] The storage concentration of compounds was 10 mM and kept at −20° C. They were diluted by 2 times or 10 times with serial dilution before using.
(§3) Dojindo CCK8 reagent kit was used as MTT assay. […] FC meter was used as microplate reader.
(§4) Adherent cell culture medium was discard and immediately replaced with fresh prepared medium which contains 10% CCK8 reagent (100 μL/well). For the suspension cells, CCK8 was directly added to 10% of the final concentration. The cells were continually incubated for 1˜4 h. When the color of control wells turned to dark yellow, the absorption value was measured at OD450 nm. The cell growth rate was calculated according to the following formula: cell growth rate (%)=100*(T−T0)/(C−T0), T=optical density of drug treatment cell well—optical density of blank control well; T0=optical density of cell well before drug treatment—optical density of blank control well; C=optical density of cell well of solvent control group—optical density of blank control well. […] The experiment was independently repeated 1˜3 times, and subject to biological statistical analysis.

[4] = system: H1975 (EGFR L858R/T790M); conditions: EGFR mutant cell line, range of GI50, read-out: GI50 H1975
Experimental: (§5) PC-9ER is an acquired Erlotinib resistance cell line of PC-9 cells developed by the investor. […] The four cell lines above were cultured with 1×RPMI1640 complete medium (supplement with 10% FBS). Human colon cancer cell line SW48 (EGFR G719S positive, ATCC). was cultured with L15 complete medium (10% FB S).
as §1, §2, §3, §4

[5] = system: PC-9 (EGFR dE746-A750); conditions: EGFR mutant cell line, range of GI50, read-out: GI50 PC-9
Experimental: as §5, §1, §2, §3, §4

[6] = system: PC-9ER (EGFR delE746-A750/T790M); conditions: EGFR mutant cell line, range of GI50, read-out: GI50 PC9ER
Experimental: as §5, §1, §2, §3, §4

[7] = system: HCC827 (EGFR dE746-A750); conditions: EGFR mutant cell line, range of GI50, read-out: GI50 HCC827
Experimental: as §5, §1, §2, §3, §4

[8] = system: H1299 (EGFR wt, Nras Q61K); conditions: EGFR wild type cell line, range of GI50, read-out: GI50 H1299
Text: (§6) EGFR wild type cell lines: human epidermal cancer cell line A431 (EGFR WT, amplification and high expression, from Shanghai Cell Bank of Chinese Academy of Sciences and ATCC), NSCLC cell lines NCI-H460 (EGFR WT, Kras G61H and PI3KCA E545K mutants, ATCC) and NCI-H1299 (EGFR WT, ATCC), melanoma cell line A375 (EGFR WT and BRAF V600E mutant, from Shanghai Cell Bank of Chinese Academy of Sciences, ATCC), human lung cancer cell line NCI-H292 (EGFR WT, from human lung mucoepidermoid carcinoma/lymphatic metastasis, purchased from Shanghai Cell Bank of Chinese Academy of Sciences) were cultured with 1×RPMI1640 complete medium which was supplement with 10% FBS. NSCLC cell line A549 (EGFR WT and Kras G12S mutant, from Shanghai Cell Bank of Chinese Academy of Sciences) was cultured with 1×Ham'S F12K complete medium which was supplement with 10% FBS, 1% double-antibiotics and 2 mM glutamine.
as §1, §2, §3, §4

[9] = system: A431 (EGFR WT, amplification and high expression); conditions: EGFR wild type cell line, range of GI50, read-out: GI50 A431
Text: as §6, §1, §2, §3, §4

[10] = system: A549 (EGFR WT); conditions: EGFR wild type cell line, range of GI50, read-out: GI50 A549
Text: as §6, §1, §2, §3, §4

[11] = system: H460 (EGFR wt, Kras G61H); conditions: EGFR wild type cell line, range of GI50, read-out: GI50 H460
Text: as §6, §1, §2, §3, §4

GI50 ([3]; Homo sapiens, SK-BR-3) | GI50 ([4]; Homo sapiens, NCI-H1975) | GI50 ([5]; Homo sapiens) | GI50 ([6]; Homo sapiens, PC-9/ER) | GI50 ([7]; Homo sapiens, HCC827) | GI50 ([8]; Homo sapiens, NCI-H1299) | GI50 ([9]; Homo sapiens, A-431) | GI50 ([10]; Homo sapiens, A549) | GI50 ([11]; Homo sapiens, NCI-H460) | SMILES | GI50 ([1]; Homo sapiens) | GI50 ([2]; Homo sapiens, AU565) | other results
10 to 100 nM | 10 to 100 nM | 10 to 100 nM | 10 to 100 nM | < 10 nM | > 1000 nM | 100 to 1000 nM | > 1000 nM | > 1000 nM | C=CC(=O)Nc1cc(Nc2nccc(Nc3cccc(Br)c3)n2)c(OC)cc1N(C)CCN(C)C [Compound 1, N-(5-(4-(3-bromophenylamino)-pyrimidin-2-ylamino)-2-(2-(dimethylamino-ethyl)-methyl-amino)-4-methoxyl-phenyl)-acrylamide] | 10 to 100 nM | 10 to 100 nM | –
10 to 100 nM | 10 to 100 nM | < 10 nM | < 10 nM | < 10 nM | > 1000 nM | 100 to 1000 nM | > 1000 nM | > 1000 nM | C=CC(=O)Nc1cc(Nc2nccc(Nc3cccc(F)c3)n2)c(OC)cc1N(C)CCN(C)C [Compound 3, N-(5-(4-(3-fluoro-phenylamino)-pyrimidin-2-ylamino)-2-(2-(dimethylamino-ethyl)-methyl-amino)-4-methoxyl-phenyl)-acrylamide] | 10 to 100 nM | 10 to 100 nM | –
– | – | – | – | – | – | – | – | – | C#Cc1cccc(Nc2ccnc(Nc3cc(NC(=O)C=C)c(N(C)CCN(C)C)cc3OC)n2)c1 [Compound 8, N-(5-(4-(3-acetenyl-phenylamino)-pyrimidin-2-ylamino)-2-(2-(dimethylamino-ethyl)-methyl-amino)-4-methoxyl-phenyl)-acrylamide] | – | – | GI50 [1]: 10 to 100 nM; GI50 [2]: 100 to 1000 nM; GI50 [3]: 10 to 100 nM; GI50 [4]: 10 to 100 nM; GI50 [5]: 10 to 100 nM; GI50 [6]: < 10 nM; GI50 [7]: 10 to 100 nM; GI50 [8]: > 1000 nM; GI50 [9]: 100 to 1000 nM; GI50 [10]: > 1000 nM; GI50 [11]: > 1000 nM
10 to 100 nM | 10 to 100 nM | 10 to 100 nM | 10 to 100 nM | 10 to 100 nM | > 1000 nM | 100 to 1000 nM | > 1000 nM | > 1000 nM | C=CC(=O)Nc1cc(Nc2nccc(Nc3ccc(F)c(Cl)c3)n2)c(OC)cc1N(C)CCN(C)C [Compound 13, N-(5-(4-(3-chloro-4-fluorophenyl-amino)-pyrimidin-2-ylamino)-2-(2-(dimethylamino-ethyl)-methyl-amino)-4-methoxyl-phenyl)-acrylamide] | 10 to 100 nM | 10 to 100 nM | –
100 to 1000 nM | 100 to 1000 nM | 10 to 100 nM | 100 to 1000 nM | 10 to 100 nM | > 1000 nM | > 1000 nM | > 1000 nM | > 1000 nM | C=CC(=O)Nc1cc(Nc2nccc(Nc3cccc(Cl)c3F)n2)c(OC)cc1N(C)CCN(C)C [Compound 14, N-(5-(4-(3-chloro-2-fluorophenyl-amino)-pyrimidin-2-ylamino)-2-(2-(dimethylamino-ethyl)-methyl-amino)-4-methoxyl-phenyl)-acrylamide] | 100 to 1000 nM | 100 to 1000 nM | –
100 to 1000 nM | 10 to 100 nM | 10 to 100 nM | 10 to 100 nM | 10 to 100 nM | > 1000 nM | > 1000 nM | > 1000 nM | > 1000 nM | C=CC(=O)Nc1cc(Nc2nccc(Nc3cc(OC)c(Cl)cc3Cl)n2)c(OC)cc1N(C)CCN(C)C [Compound 16, N-(5-(4-(2,4-dichloro-5-methoxyphenyl-amino)-pyrimidin-2-ylamino)-2-(2-(dimethylamino-ethyl)-methyl-amino)-4-methoxyl-phenyl)-acrylamide] | 100 to 1000 nM | 100 to 1000 nM | –
10 to 100 nM | 10 to 100 nM | 10 to 100 nM | 10 to 100 nM | 10 to 100 nM | > 1000 nM | 100 to 1000 nM | > 1000 nM | > 1000 nM | C=CC(=O)Nc1cc(Nc2nccc(Nc3ccc(OCc4ccccn4)c(Cl)c3)n2)c(OC)cc1N1CCC(N(C)C)CC1 [Compound 28] | 10 to 100 nM | 10 to 100 nM | –
100 to 1000 nM | 10 to 100 nM | 10 to 100 nM | < 10 nM | 10 to 100 nM | > 1000 nM | 100 to 1000 nM | > 1000 nM | > 1000 nM | C=CC(=O)Nc1cc(Nc2nccc(N3CCc4ccccc43)n2)c(OC)cc1N(C)CCN(C)C [Compound 31] | 100 to 1000 nM | 100 to 1000 nM | –
100 to 1000 nM | 10 to 100 nM | 10 to 100 nM | < 10 nM | 10 to 100 nM | > 1000 nM | 100 to 1000 nM | > 1000 nM | > 1000 nM | C=CC(=O)Nc1cc(Nc2nccc(-n3ccc4ccccc43)n2)c(OC)cc1N(C)CCN(C)C [Compound 32] | 10 to 100 nM | 10 to 100 nM | –
10 to 100 nM | < 10 nM | < 10 nM | – | < 10 nM | – | 100 to 1000 nM | – | – | C=CC(=O)Nc1cc(Nc2ncnc(Nc3cccc(Br)c3)n2)c(OC)cc1N1CCC(N2CCCCC2)CC1 [Compound 119, N-{2-[1,4′]-piperidin-1′-yl-5-[4-(3-bromo-phenylamino)-[1,3,5]triazin-2-amino]-4-methoxyl-phenyl}-acrylamide] | < 10 nM | < 10 nM | –
10 to 100 nM | 10 to 100 nM | 10 to 100 nM | – | < 10 nM | – | 100 to 1000 nM | – | – | C=CC(=O)Nc1cc(Nc2ncnc(Nc3cccc(Br)c3)n2)c(OC)cc1N1CCCN(C)CC1 [Compound 130, N-[5-[4-(3-bromo-phenylamino)-[1,3,5]triazin-2-ylamino]-4-methoxyl-2-(4-methyl-[1,4]diazepane-1-yl)-phenyl]-acrylamide] | < 10 nM | < 10 nM | –

Source: patent publication US10342796B2, “Acrylanilide derivative, preparation method, and applications thereof in pharmacy” (Ancureall Pharmaceutical (Shanghai) Co., Ltd., priority 2015, dated 2019)
